Experimental data reported in US7517874B2 (priority 2007, dated 2009).
Read-outs that look alike come from different tables or passages of the source.

What was measured:
[1] = target: human CB1 receptor (hCB1) (Homo sapiens, UniProt P21554); assay: cell-based; assay type: cell-based; conditions: for +/− HCB1: agonist or inverse agonist at hCB1
How it was run: (§1)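 Agonism or inverse agonism was assessed as change in intracellular cAMP in CHO-K1 cells expressing human CB1 or rat CB2 (genomic DNA, pcDNA3.1).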

[2] = target: T1, rat CB2 receptor (rCB2) (Rattus norvegicus, UniProt Q9QZN9); assay: cell-based; assay type: cell-based; conditions: for +/− RCB2: agonist or inverse agonist at rCB2
T1 sequence (Q9QZN9 1-360): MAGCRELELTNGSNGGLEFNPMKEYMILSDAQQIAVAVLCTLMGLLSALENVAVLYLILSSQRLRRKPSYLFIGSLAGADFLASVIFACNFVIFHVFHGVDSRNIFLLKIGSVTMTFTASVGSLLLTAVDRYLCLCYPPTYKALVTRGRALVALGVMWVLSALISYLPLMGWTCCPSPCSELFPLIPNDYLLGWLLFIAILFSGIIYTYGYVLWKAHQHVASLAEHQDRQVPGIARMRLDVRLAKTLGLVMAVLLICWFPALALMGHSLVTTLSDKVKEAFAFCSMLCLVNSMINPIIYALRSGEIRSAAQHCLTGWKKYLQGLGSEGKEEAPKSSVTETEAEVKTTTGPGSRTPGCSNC
How it was run: as §1

[3] = groups >100 nM-10 μM and >10 μM, cAMP, CHO-K1 hCB1, read-out: EC50 HCB1

Chain of human CB1 receptor (hCB1) (P21554 whole entry): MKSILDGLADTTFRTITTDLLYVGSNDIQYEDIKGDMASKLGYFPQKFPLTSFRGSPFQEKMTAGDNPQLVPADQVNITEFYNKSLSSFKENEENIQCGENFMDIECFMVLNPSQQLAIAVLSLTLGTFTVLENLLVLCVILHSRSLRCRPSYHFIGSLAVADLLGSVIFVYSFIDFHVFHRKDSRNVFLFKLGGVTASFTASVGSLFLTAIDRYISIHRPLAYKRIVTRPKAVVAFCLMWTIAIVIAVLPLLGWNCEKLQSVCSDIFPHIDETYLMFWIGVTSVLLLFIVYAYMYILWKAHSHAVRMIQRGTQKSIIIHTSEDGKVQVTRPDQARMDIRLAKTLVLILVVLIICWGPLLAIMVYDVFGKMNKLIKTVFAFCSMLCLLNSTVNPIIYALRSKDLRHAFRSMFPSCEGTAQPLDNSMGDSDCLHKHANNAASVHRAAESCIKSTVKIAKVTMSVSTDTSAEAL

Compound | EC50 [1] [nM] | +/− RCB2 [2] | also measured
CNC(=O)[C@@H](NC(=O)c1nc(-c2cccc(C(F)(F)F)c2)n2c1CN(C)CCC2)C(C)(C)C [Compound 438, (S)-N-(3,3-dimethyl-1-(methylamino)-1-oxobutan-2-yl)-8-methyl-3-(3-(trifluoromethyl)phenyl)-6,7,8,9-tetrahydro-5H-imidazo[1,5-a][1,4]diazepine-1-carboxamide] | > 10000 | − | 
CNC(=O)[C@@H](NC(=O)c1nc(C2=CCC(C)CC2)n2c1CN(C)CCC2)C(C)(C)C (stereo partly drawn) [Compound 449, N-((S)-3,3-dimethyl-1-(methylamino)-1-oxobutan-2-yl)-8-methyl-3-(4-methylcyclohex-1-enyl)-6,7,8,9-tetrahydro-5H-imidazo[1,5-a][1,4]diazepine-1-carboxamide] |  | + | +/− HCB1 [1]: +
CN1CCCn2c(-c3ccccc3)nc(C(=O)N[C@H](C(N)=O)C(C)(C)C)c2C1 [Compound 582] | > 10000 | + | 
CNC(=O)[C@H](CC(C)C)NC(=O)c1nc(-c2ccc(F)c(F)c2)n2c1CN(C)CCC2 [Compound 535, (S)-3-(3,4-difluorophenyl)-8-methyl-N-(4-methyl-1-(methylamino)-1-oxopentan-2-yl)-6,7,8,9-tetrahydro-5H-imidazo[1,5-a][1,4]diazepine-1-carboxamide] | > 10000 | + | 
CNC(=O)[C@@H](NC(=O)c1nc(-c2ccc(F)c(Cl)c2)n2c1CN(C)CCC2)C(C)(C)C [Compound 372, (S)-3-(3-chloro-4-fluorophenyl)-N-(3,3-dimethyl-1-(methylamino)-1-oxobutan-2-yl)-8-methyl-6,7,8,9-tetrahydro-5H-imidazo[1,5-a][1,4]diazepine-1-carboxamide] | > 10000 | + | 
CNC(=O)[C@@H](NC(=O)c1nc(-c2ccccc2F)n2c1CN(C)CC2)C(C)(C)C [Compound 258, (S)-N-(3,3-dimethyl-1-(methylamino)-1-oxobutan-2-yl)-3-(2-fluorophenyl)-7-methyl-5,6,7,8-tetrahydroimidazo[1,5-a]pyrazine-1-carboxamide] | > 10000 |  | EC50 [2]: > 10000 nM
CC(C)(C)[C@@H](CO)NC(=O)c1nc(-c2ccccc2)n2c1CNCC2 [Compound 22, (S)-N-(1-hydroxy-3,3-dimethylbutan-2-yl)-3-phenyl-5,6,7,8-tetrahydroimidazo[1,5-a]pyrazine-1-carboxamide] | > 10000 | − | 
CNC(=O)[C@@H](NC(=O)c1nc(-c2ccc(OC)c(C)c2)n2c1CN(C)CCC2)C(C)(C)C [Compound 350, (S)-N-(3,3-dimethyl-1-(methylamino)-1-oxobutan-2-yl)-3-(4-methoxy-3-methylphenyl)-8-methyl-6,7,8,9-tetrahydro-5H-imidazo[1,5-a][1,4]diazepine-1-carboxamide] | > 10000 | − | 
CC(C)CN1CCn2c(-c3ccccc3)nc(C(=O)N[C@@H](C)c3ccccc3)c2C1 [Compound 145, (S)-7-isobutyl-3-phenyl-N-(1-phenylethyl)-5,6,7,8-tetrahydroimidazo[1,5-a]pyrazine-1-carboxamide] | > 10000 | − | 
CNC(=O)[C@@H](NC(=O)c1nc(-c2cn[nH]c2)n2c1CN(C)CCC2)C(C)(C)C [Compound 432, (S)-N-(3,3-dimethyl-1-(methylamino)-1-oxobutan-2-yl)-8-methyl-3-(1H-pyrazol-4-yl)-6,7,8,9-tetrahydro-5H-imidazo[1,5-a][1,4]diazepine-1-carboxamide] | > 10000 | + | 
CNC(=O)[C@@H](NC(=O)c1nc(-c2ccc(-c3ccccc3)cc2)n2c1CN(C)CC2)C(C)(C)C [Compound 265, (S)-3-(biphenyl-4-yl)-N-(3,3-dimethyl-1-(methylamino)-1-oxobutan-2-yl)-7-methyl-5,6,7,8-tetrahydroimidazo[1,5-a]pyrazine-1-carboxamide] | > 10000 | − | 
CNC(=O)[C@@H](NC(=O)c1nc(-c2ccccc2)n2c1CN(Cc1cccn1C)CC2)C(C)(C)C [Compound 71, (S)-N-(3,3-dimethyl-1-(methylamino)-1-oxobutan-2-yl)-7-((1-methyl-1H-pyrrol-2-yl)methyl)-3-phenyl-5,6,7,8-tetrahydroimidazo[1,5-a]pyrazine-1-carboxamide] | > 10000 | − | 
CNC(=O)[C@@H](NC(=O)c1nc(C2CCCC2)n2c1CN(C)CC2)C(C)(C)C [Compound 303, (S)-3-cyclopentyl-N-(3,3-dimethyl-1-(methylamino)-1-oxobutan-2-yl)-7-methyl-5,6,7,8-tetrahydroimidazo [1,5-a]pyrazine-1-carboxamide] | > 10000 | + | 
O=C(NC1CCCCC1)c1nc(-c2ccccc2)n2c1CN(C(=O)C1CC1)CC2 [Compound 136, N-cyclohexyl-7-(cyclopropanecarbonyl)-3-phenyl-5,6,7,8-tetrahydroimidazo[1,5-a]pyrazine-1-carboxamide] |  | − | EC50 [1, 3]: > 10000 nM
CNC(=O)[C@@H](NC(=O)c1nc(-c2ccccc2)n2c1CN(Cc1nccs1)CC2)C(C)(C)C [Compound 72, (S)-N-(3,3-dimethyl-1-(methylamino)-1-oxobutan-2-yl)-3-phenyl-7-(thiazol-2-ylmethyl)-5,6,7,8-tetrahydroimidazo[1,5-a]pyrazine-1-carboxamide] | > 10000 |  | EC50 [2]: > 10000 nM
CNC(=O)[C@@H](NC(=O)c1nc(/C=C/CCO)n2c1CN(C)CCC2)C(C)(C)C [Compound 514, (S,E)-N-(3,3-dimethyl-1-(methylamino)-1-oxobutan-2-yl)-3-(4-hydroxybut-1-enyl)-8-methyl-6,7,8,9-tetrahydro-5H-imidazo[1,5-a][1,4]diazepine-1-carboxamide] |  | + | +/− HCB1 [1]: +
CNC(=O)[C@@H](NC(=O)c1nc(C2CCCCO2)n2c1CN(C)CCC2)C(C)(C)C (stereo partly drawn) [Compound 504, N-((S)-3,3-dimethyl-1-(methylamino)-1-oxobutan-2-yl)-8-methyl-3-(tetrahydro-2H-pyran-2-yl)-6,7,8,9-tetrahydro-5H-imidazo[1,5-a][1,4]diazepine-1-carboxamide] | > 10000 | + | 
CC(C)CN1CCn2c(-c3ccc(Cl)cc3)nc(C(=O)N[C@H](CO)C(C)(C)C)c2C1 [Compound 160, (S)-3-(4-chlorophenyl)-N-(1-hydroxy-3,3-dimethylbutan-2-yl)-7-isobutyl-5,6,7,8-tetrahydroimidazo[1,5-a]pyrazine-1-carboxamide] | > 10000 | − | 
CC(CO)NC(=O)c1nc(-c2ccccc2)n2c1CN(C)CC2 (stereo not shown) [Compound 231, N-(1-hydroxypropan-2-yl)-7-methyl-3-phenyl-5,6,7,8-tetrahydroimidazo[1,5-a]pyrazine-1-carboxamide] |  |  | EC50 [1, 3]: > 10000 nM; EC50 ([2]; groups >100 nM-10 μM and >10 μM, cAMP, CHO-K1 rCB2, read-out: EC50 RCB2): > 10000 nM
CC(C)(C)CC(=O)c1nc(-c2ccccc2)n2c1CNCC2 [Compound 291, 3,3-dimethyl-1-(3-phenyl-5,6,7,8-tetrahydroimidazo[1,5-a]pyrazin-1-yl)butan-1-one 2,2,2-trifluoroacetate] | > 10000 | − | 
CNC(=O)[C@@H](NC(=O)c1nc(-c2ccc(Cl)cc2F)n2c1CN(CC(C)C)CCC2)C(C)(C)C [Compound 322, (S)-3-(4-chloro-2-fluorophenyl)-N-(3,3-dimethyl-1-(methylamino)-1-oxobutan-2-yl)-8-isobutyl-6,7,8,9-tetrahydro-5H-imidazo[1,5-a][1,4]diazepine-1-carboxamide] | > 10000 | − | 
CNC(=O)[C@@H](NC(=O)c1nc(-c2cccc(C(F)(F)F)c2F)n2c1CN(C)CCC2)C(C)(C)C [Compound 364, (S)-N-(3,3-dimethyl-1-(methylamino)-1-oxobutan-2-yl)-3-(2-fluoro-3-(trifluoromethyl)phenyl)-8-methyl-6,7,8,9-tetrahydro-5H-imidazo[1,5-a][1,4]diazepine-1-carboxamide] | > 10000 | − | 
CNC(=O)[C@@H](NC(=O)c1nc(-c2ccc(C)cc2F)n2c1CN(C)CC2)C(C)(C)C [Compound 249, (S)-N-(3,3-dimethyl-1-(methylamino)-1-oxobutan-2-yl)-3-(2-fluoro-4-methylphenyl)-7-methyl-5,6,7,8-tetrahydroimidazo[1,5-a]pyrazine-1-carboxamide] | > 10000 | − | 
COC(=O)N1CCn2c(-c3ccccc3)nc(C(=O)Nc3ccccc3)c2C1 [Compound 181, methyl 3-phenyl-1-(phenylcarbamoyl)-5,6-dihydroimidazo[1,5-a]pyrazine-7(8H)-carboxylate] |  | − | EC50 [1, 3]: > 10000 nM
CN1CCn2c(-c3ccccc3)nc(C(=O)N3CCOCC3)c2C1 [Compound 69, (7-methyl-3-phenyl-5,6,7,8-tetrahydroimidazo[1,5-a]pyrazin-1-yl)(morpholino)methanone] |  | − | EC50 [1, 3]: > 10000 nM
CNC(=O)[C@@H](NC(=O)c1nc(-c2ccc(F)cc2)n2c1CN(C)CC2)C(C)(C)C [Compound 247, (S)-N-(3,3-dimethyl-1-(methylamino)-1-oxobutan-2-yl)-3-(4-fluorophenyl)-7-methyl-5,6,7,8-tetrahydroimidazo[1,5-a]pyrazine-1-carboxamide] | > 10000 | + | 
